From patent US11292812B2, “3′3′-cyclic dinucleotides” (Institute of Organic Chemistry and Biochemistry, ASCR, V.V.I, priority 2018, dated 2022)

Key:
WT STING [1] = molecular target: T1, WT STING (Homo sapiens, UniProt Q86WV6, H232R); assay: Differential Scanning Fluorimetry with WT STING; assay type: binding; parameters: truncated human WT STING or AQ STING (amino acid residues 140-343); 8xHis (N, cleaved yes); SUMO (N, cleaved yes); made in house; host or cells: E. coli Rosetta-gami B (DE3); settings: thermal shift, truncated human WT STING 0.1 mg/ml, 150 μM CDN; for ΔTm at 150 µM: read-out: DSF ΔTm WT STING
Protocol: (§1) Purified PCR products were cleaved with restriction enzymes BamHI (cat. #R0136S, NEB, Ipswich, USA) and NotI (cat. #R0189S, NEB, Ipswich, USA) and cloned into the pSUMO vector linearized with the identical enzymes.
(§2) DNase I (cat. #D5025, Sigma Aldrich, Czech Republic) and RNase A (cat. #R6513, Sigma Aldrich, Czech Republic) were added (final concentration 50 μg/ml) together with MgCl2 (final concentration 5 mmol·l^−1) to the homogenate and bacteria were lysed using French Press G-M™ High-Pressure Cell Press Homogenizer (1500 psi, 3 cycles). […] The resin was poured into a chromatography column, washed with 50 ml buffer A (50 mmol·l^−1 TrisCl (pH 8.0), 800 mmol·l^−1 NaCl, 3 mmol·l^−1 β-mercaptoethanol; 10% glycerol; 20 mmol·l^−1 imidazole) and 8-His-SUMO tagged STING proteins were eluted with 15 ml buffer A containing 300 mmol·l^−1 imidazole. […] Proteins were concentrated with Amicon® Ultra-15 10 K device (cat. #UFC901008, Merck Millipore, Billerica, USA) and flash frozen in liquid N2.
(§3) 20 μL solutions of the reaction mixtures were pipetted in triplicates into 96 well optical reaction plates and thermal denaturation of samples were performed on real time PCR cycler (LightCycler® 480 Instrument II—Roche, Basel, Switzerland). The first derivative of the thermal denaturation curves was performed to calculate denaturing temperatures of STING-CDN complexes and STING apoproteins. The thermal shift for each CDN was calculated by subtracting the average denaturing temperature of STING apoprotein from the average denaturing temperature of STING CDN complex.
Target sequence in this assay (Q86WV6 140-343 H232R): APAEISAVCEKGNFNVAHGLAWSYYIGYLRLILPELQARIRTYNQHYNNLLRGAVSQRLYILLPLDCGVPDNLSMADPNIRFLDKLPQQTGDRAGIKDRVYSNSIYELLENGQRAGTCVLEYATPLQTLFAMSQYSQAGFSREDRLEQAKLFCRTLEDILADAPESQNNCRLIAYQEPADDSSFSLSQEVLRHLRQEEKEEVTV

WT STING [2] = molecular target: T1, WT STING; assay: Digitonin assay using 293T wtSTING-FL reporter cells; assay type: cell-based; settings: 293T wtSTING-FL cells, ISRE firefly luciferase reporter, digitonin buffer 30 minutes, then 5 hours
Description: Two complementary oligonucleotides of the sequence […] […] […] […] […] […] […] The oligonucleotides were mixed in equal molar amounts, hybridized, and cleaved by restriction endonucleases HindIII (cat. #. R0104S, NEB, Ipswich, USA) and BglII (cat. #R0144S, NEB, Ipswich, USA). Ultimately, they were ligated into plasmid pGL4.27 (cat. #E6651, Promega, Madison, USA) linearized with the same enzymes. As result the sequence with four ISRE sites was placed upstream of the minimum promoter of firefly luciferase reporter gene.
After 5 minutes incubation at room temperature (RT), 250 μL of the mixture was added dropwise to the cells in one well. Cells were incubated 36 hours at 37° C. with 5% CO2, and then detached with 0.05% Trypsin and 0.22 g/L EDTA (both cat. #L0941, Biowest, Riverside, USA).
Transfected cells were seeded onto poly-D-lysine coated six well plates at density 50,000 cells per 1 cm^2 in DMEM medium with high glucose containing 10% heat inactivated FBS, 30 μg/mL blasticidin (cat. #ant-bl-05, InvivoGen, San Diego, USA), 0.06 mg/ml Penicillin G and 0.1 mg/ml Streptomycin Sulfate (both cat. #. L0018, Biowest, Riverside, USA). The medium was replenished every 3-4 days until visible colonies of cells resistant to blasticidin were formed.
Blasticidin resistant cells stably expressing WT STING were further transfected with pGL64.27-4×ISRE plasmid following the same procedure as described above. […] Homogeneous culture of stably double transfected cells was prepared by limiting dilution of cells in 96 well plates and wells with cells were selected that originated from a single cell.
The medium was removed next day and three fold serial dilutions of compounds in Digitonin buffer containing 50 mmol·l^−1 HEPES (cat. #H3375, Sigma Aldrich, Czech Republic) pH 7.0, 100 mmol·l^−1 KCl, 3 mmol·l^−1 MgCl2, 0.1 mmol·l^−1 DTT (cat. #D0632, Sigma Aldrich, Czech Republic), 85 mmol·l^−1 Sucrose (cat. #S7903, Sigma Aldrich, Česká Republika), 0.2% BSA (cat. #A2153, Sigma Aldrich, Czech Republic), 1 mmol·l^−1 ATP (cat. #A1852, Sigma Aldrich, Czech Republic), 0.1 mmol·l^−1 GTP (cat. #G8877, Sigma Aldrich, Czech Republic), and 10 μg/mL Digitonin A (cat. #D141, Sigma Aldrich, Czech Republic) were added to the cells. The buffer was removed after 30 minutes incubation at 37° C. with 5% CO2, the cells were washed once with 100 μl of cultivation medium, and 100 μl of medium was added to each well. The plates with cells were incubated for 5 hours at 37° C. with 5% CO2, 50 μl of the medium was removed and 30 μl of ONE-Glo™ Luciferase Assay System reagent (cat. #E6120, Promega, Madison, USA) was added to each well. Luminesce was read on Synergy H1 (Biotek, Winooski, USA).
Target sequence in this assay (Q86WV6 whole entry H232R, the tested form may be a part): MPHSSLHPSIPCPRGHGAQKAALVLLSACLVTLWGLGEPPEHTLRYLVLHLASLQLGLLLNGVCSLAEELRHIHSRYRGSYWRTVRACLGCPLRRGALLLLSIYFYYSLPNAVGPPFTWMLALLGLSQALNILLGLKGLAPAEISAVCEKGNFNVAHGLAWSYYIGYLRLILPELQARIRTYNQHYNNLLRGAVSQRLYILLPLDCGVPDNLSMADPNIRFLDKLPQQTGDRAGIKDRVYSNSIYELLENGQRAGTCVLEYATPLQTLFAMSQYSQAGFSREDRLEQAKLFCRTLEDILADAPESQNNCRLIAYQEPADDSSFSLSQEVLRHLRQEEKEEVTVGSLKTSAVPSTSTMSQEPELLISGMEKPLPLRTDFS

AQ STING (G230A-R293Q) = molecular target: T2, AQ STING (G230A-R293Q) (Homo sapiens, UniProt Q86WV6, G230A/H232R/R293Q); assay: Differential Scanning Fluorimetry with AQ STING; assay type: binding; settings: thermal shift, truncated human AQ STING 0.1 mg/ml, 150 μM CDN; for ΔTm at 150 µM: read-out: DSF ΔTm AQ STING
T2 construct: truncated human WT STING or AQ STING (amino acid residues 140-343); 8xHis (N, cleaved yes); SUMO (N, cleaved yes); made in house; host or cells: E. coli Rosetta-gami B (DE3)
T2 sequence (Q86WV6 140-343 G230A/H232R/R293Q): as the sequence (Q86WV6 140-343 H232R) above, with G91A, R154Q counted along it
Protocol: as §1, §2, §3

Row | Compound | ΔTm at 150 µM (WT STING [1]) [°C] | EC50 (WT STING [2]) [nM] | ΔTm at 150 µM (AQ STING (G230A-R293Q)) [°C] | DSF ΔTm WT STING (WT STING [1]) [°C] | DSF ΔTm AQ STING (AQ STING (G230A-R293Q)) [°C]
1 | Nc1ncnc2c1ncn2[C@@H]1O[C@@H]2COP(=O)(O)O[C@H]3[C@@H](O)[C@H](n4cnc5c(N)ncnc54)O[C@@H]3COP(=O)(O)O[C@H]2[C@H]1O [3′3′-c-di-AMP, reference compound] | – | 300 | – | 2.6 | 9.3
2 | Nc1nc2c(ncn2[C@@H]2O[C@@H]3COP(=O)(O)COC4C(O)[C@H](n5cnc6c(=O)[nH]c(N)nc65)O[C@@H]4COP(=O)(O)COC3C2O)c(=O)[nH]1 (stereo partly drawn) [Example 6, 9,9′-((2R,3R,3aS,8aR,10R,11R,11aS,16aR)-3,6,11,14-tetrahydroxy-6,14-dioxidododecahydrodifuro[3,2-e:3′,2′-l][1,4,8,11]tetraoxa[2,9]diphosphacyclotetradecine-2,10-diyl)bis(2-amino-1,9-dihydro-6H-purin-6-one)] | 0.1 | > 50000 | 0 | – | –
3 | Nc1ncnc2c1ncn2[C@@H]1O[C@@H]2COP(=O)(O)COC3C(O)[C@H](n4cnc5c(N)ncnc54)O[C@@H]3COP(=O)(O)COC2C1O (stereo partly drawn) [Example 10, (2R,3R,3aR,8aR,10R,11R,11aR,16aR)-2,10-bis(6-amino-9H-purin-9-yl)-3,6,11,14-tetrahydroxvdodecahydrodifuro[3,2-e:3′,2′-l][1,4,8,11]tetraoxa[2,9]diphosphacyclotetradecine 6,14-dioxide] | – | > 100000 | – | 0.0 | −0.2
4 | Nc1ncnc2c1ncn2[C@@H]1O[C@@H]2COP(=O)(O)OC3C(F)[C@H](n4cnc5c(N)ncnc54)O[C@@H]3COP(=O)(O)COC2C1F (stereo partly drawn) [Example 13, (2R,3R,3aR,7aR,9R,10R,10aR,15aR)-2,9-bis(6-amino-9H-purin-9-yl)-3,10-difluoro-5,13-dihydroxydecahydro-2H-difuro[3,2-d:3′,2′-k][1,3,7,10]tetraoxa[2,8]diphosphacyclotridecine 5,13-dioxide] | 9.4 | 12 | 16.1 | – | –
5 | Nc1nc2c(ncn2[C@@H]2O[C@@H]3COP(=O)(O)OC4C(F)[C@H](n5cnc6c(=O)[nH]c(N)nc65)O[C@@H]4COP(=O)(O)COC3C2F)c(=O)[nH]1 (stereo partly drawn) [Example 16, 9,9′-((2R,3R,3aR,7aR,9R,10R,10aR,15aR)-3,10-difluoro-5,13-dihydroxy-5,13-dioxidodecahydro-2H-difuro[3,2-d:3′,2′-k][1,3,7,10]tetraoxa[2,8]diphosphacyclotridecine-2,9-diyl)bis(2-amino-1,9-dihydro-6H-purin-6-one)] | 3.1 | 300 | 10.7 | – | –
6 | Nc1nc2c(ncn2[C@@H]2O[C@@H]3COP(=O)(O)O[C@@H]4[C@H](O)[C@@H](COP(=O)(O)O[C@@H]2[C@@H]3O)O[C@H]4n2cnc3c(N)ncnc32)c(=O)[nH]1 [2′2′-cGAMP, reference compound] | – | 30 | – | 11.5 | 19.4
7 | Nc1nc2c(ncn2[C@@H]2O[C@@H]3COP(=O)(O)OC4C(F)[C@H](n5cnc6c(N)ncnc65)O[C@@H]4COP(=O)(O)COC3C2F)c(=O)[nH]1 (stereo partly drawn) [Example 12] | 9.3 | 20 | 17.3 | – | –
8 | Nc1nc2c(ncn2[C@@H]2O[C@@H]3COP(=O)(O)COC4C(O)[C@H](n5cnc6c(N)ncnc65)O[C@@H]4COP(=O)(O)OC3C2F)c(=O)[nH]1 (stereo partly drawn) [Example 5, 2-amino-9-((2R,3R,3aR,7aR,9R,10R,10aS,15aR)-9-(6-amino-9H-purin-9-yl)-3-fluoro-5,10,13-trihydroxy-5,13-dioxidodecahydro-2H-difuro[3,2-d:3′,2′-k][1,3,7,10]tetraoxa[2,8]diphosphacyclotridecin-2-yl)-1,9-dihydro-6H-purin-6-one] | 4.1 | 100 | 12 | – | –

Continued, values first:

Row | ΔTm at 150 µM (WT STING [1]) [°C] | EC50 (WT STING [2]) [nM] | ΔTm at 150 µM (AQ STING (G230A-R293Q)) [°C] | DSF ΔTm WT STING (WT STING [1]) [°C] | DSF ΔTm AQ STING (AQ STING (G230A-R293Q)) [°C] | Compound
9 | 0 | 12500 | 3.1 | – | – | Nc1nc2c(ncn2[C@@H]2O[C@@H]3COP(=O)(O)COC4C(O)[C@H](n5cnc6c(N)ncnc65)O[C@@H]4COP(=O)(O)OC3C2O)c(=O)[nH]1 (stereo partly drawn) [Example 3, 2-amino-9-((2R,3R,3aS,7aR,9R,10R,10aS,15aR)-9-(6-amino-9H-purin-9-yl)-3,5,10,13-tetrahydroxy-5,13-dioxidodecahydro-2H-difuro[3,2-d:3′,2′-k][1,3,7,10]tetraoxa[2,8]diphosphacyclotridecin-2-yl)-1,9-dihydro-6H-purin-6-one]
10 | – | 110 | – | 4.0 | 12.7 | 2-amino-9-((2R,3aS,7aR,9R,10R,10aR,15aR)-9-(6-amino-9H-purin-9-yl)-10-fluoro-5,13-dihydroxy-5,13-dioxidodecahydro-2H-difuro[3,2-d:3′,2′-k][1,3,7,10]tetraoxa[2,8]diphosphacyclotridecin-2-yl)-1,9-dihydro-6H-purin-6-one [Example 15]
11 | 7.3 | 50 | 11.3 | – | – | Nc1nc2c(ncn2[C@@H]2O[C@@H]3COP(=O)(O)OC4C(O)[C@H](n5cnc6c(N)ncnc65)O[C@@H]4COP(=O)(O)COC3C2F)c(=O)[nH]1 (stereo partly drawn) [Example 11, 2-amino-9-((2R,3R,3aS,7aR,9R,10R,10aR,15aR)-2-(6-amino-9H-purin-9-yl)-10-fluoro-3,5,13-trihydroxy-5,13-dioxidodecahydro-2H-difuro[3,2-d:3′,2′-k][1,3,7,10][tetraoxa][2,8]diphosphacyclotridecin-9-yl)-1,9-dihydro-6H-purin-6-one]
12 | 4.8 | 50 | 13.6 | – | – | Nc1nc2c(ncn2[C@@H]2O[C@@H]3COP(=O)(O)OC4C(F)[C@H](n5cnc6c(N)ncnc65)O[C@@H]4COP(=O)(O)COC3C2O)c(=O)[nH]1 (stereo partly drawn) [Example 4, 2-amino-9-((2R,3R,3aR,7aR,9R,10R,10aS,15aR)-2-(6-amino-9H-purin-9-yl)-3-fluoro-5,10,13-trihydroxy-5,13-dioxidodecahydro-2H-difuro[3,2-d:3′,2′-k][1,3,7,10]tetraoxa[2,8]diphosphacyclotridecin-9-yl)-1,9-dihydro-6H-purin-6-one]
